Experimental data as given in patent US4409314A, “Light-sensitive compounds, light-sensitive mixture, and light-sensitive copying material prepared therefrom” (Hoechst Aktiengesellschaft, priority 1980, dated 1983).
Like-named read-outs stand apart in the source and are kept apart here.

Key:
[1] = type: physicochemical; conditions: for Solubility (%): 4320 min; for Appearance of solution in ethylene glycol monomethyl ether: no precipitations even after 3 days
Experimental: (§1) In each case, 1 to 4 g of crystalline diazo compound were stirred in 25 g of ethylene glycol monomethyl ether, which is the most important solvent in coating technology, for 2 hours at room temperature and the mixture was allowed to stand for a further 70 hours without stirring, in order to complete the crystallization of possible amorphous constituents. The mixture was then filtered off with suction, and the filter residue was washed successively with 10 ml of methanol and 10 ml of ether, dried in vacuo, and its weight was determined. The solubilities in ethylene glycol monomethyl ether, listed in Table 3, were calculated from the difference relative to the quantity employed.

[2] = Solubility in n-butyl acetate; type: physicochemical; conditions: 1 g crystalline diazo compound stirred 2 hours in 25 g n-butyl acetate
Experimental: as §1
In a further widely used solvent, namel
1 g of the crystalline diazo compound was stirred for 2 hours in 25 g of
nbutyl acetate. The mixtures were then worked up as in Example 1.

[3] = 3 g of compound in 25 g solvent

| Structure (SMILES) | Solubility (%) [1] | other results |
| --- | --- | --- |
| CC(CC(=O)c1ccc(OS(=O)(=O)C2=CC(=[N+]=[N-])C(=O)c3ccccc32)cc1OS(=O)(=O)C1=CC(=[N+]=[N-])C(=O)c2ccccc21)CC(C)(C)C (stereo not shown) [Compound 6] | 10.5% | – |
| CCCCCCCCCCCCCCCC(=O)c1ccc(OS(=O)(=O)c2cccc3c2C=CC(=[N+]=[N-])C3=O)cc1OS(=O)(=O)c1cccc2c1C=CC(=[N+]=[N-])C2=O [Compound 7] | – | Solubility (%) in butyl acetate [2]: 1.03% |
| CCOCCOC(=O)c1ccc(OS(=O)(=O)C2=CC(=[N+]=[N-])C(=O)c3ccccc32)c(OS(=O)(=O)C2=CC(=[N+]=[N-])C(=O)c3ccccc32)c1 [Compound 15] | 3.7% | – |
| [N-]=[N+]=C1C=Cc2c(cccc2S(=O)(=O)Oc2ccc(C(=O)c3ccccc3)c(OS(=O)(=O)c3cccc4c3C=CC(=[N+]=[N-])C4=O)c2OS(=O)(=O)c2cccc3c2C=CC(=[N+]=[N-])C3=O)C1=O [V, tris-1,2-naphthoquinone-2-diazide-5-sulfonic acid ester of 2,3,4-trihydroxy-benzophenone, reference compound] | 1.0% | Solubility (%) in butyl acetate [2]: 0.50% |
| CCOCCOC(=O)c1cc(OS(=O)(=O)c2cccc3c2C=CC(=[N+]=[N-])C3=O)cc(OS(=O)(=O)c2cccc3c2C=CC(=[N+]=[N-])C3=O)c1 [Compound 16] | 5.0% | – |
| CCCCC(CC)C(=O)c1ccc(OS(=O)(=O)C2=CC(=[N+]=[N-])C(=O)c3ccccc32)cc1OS(=O)(=O)C1=CC(=[N+]=[N-])C(=O)c2ccccc21 (stereo not shown) [Compound 4] | 4.3% | – |
| CCCCCCCCCCCCCCCC(=O)c1ccc(OS(=O)(=O)C2=CC(=[N+]=[N-])C(=O)c3ccccc32)cc1OS(=O)(=O)C1=CC(=[N+]=[N-])C(=O)c2ccccc21 [Compound 8] | – | Solubility (%) in butyl acetate [2]: 1.75% |
| CC(C)CCOC(=O)c1ccc(OS(=O)(=O)C2=CC(=[N+]=[N-])C(=O)c3ccccc32)cc1OS(=O)(=O)C1=CC(=[N+]=[N-])C(=O)c2ccccc21 [Compound 11] | 2.3% | – |

Second part, led by results:

| Solubility (%) [1] | Structure (SMILES) | other results |
| --- | --- | --- |
| 4.7% | CC(C)CCOC(=O)c1ccc(OS(=O)(=O)c2cccc3c2C=CC(=[N+]=[N-])C3=O)c(OS(=O)(=O)c2cccc3c2C=CC(=[N+]=[N-])C3=O)c1 [Compound 13] | – |
| > 10.7% | CCCCC(=O)c1ccc(OS(=O)(=O)c2cccc3c2C=CC(=[N+]=[N-])C3=O)cc1OS(=O)(=O)c1cccc2c1C=CC(=[N+]=[N-])C2=O [Compound 2] | Appearance of solution in ethylene glycol monomethyl ether [1, 3]: clear |
| 4.6% | CCCCCCCCCCCCOC(=O)c1cc(OS(=O)(=O)c2cccc3c2C=CC(=[N+]=[N-])C3=O)cc(OS(=O)(=O)c2cccc3c2C=CC(=[N+]=[N-])C3=O)c1 [Compound 18] | – |
| > 13.8% | CCCCC(CC)C(=O)c1ccc(OS(=O)(=O)c2cccc3c2C=CC(=[N+]=[N-])C3=O)cc1OS(=O)(=O)c1cccc2c1C=CC(=[N+]=[N-])C2=O (stereo not shown) [Compound 3] | Appearance of solution in ethylene glycol monomethyl ether ([1]; 4 g of compound in 25 g solvent): clear |
| 0.87% | COC(=O)c1ccc(OS(=O)(=O)c2cccc3c2C=CC(=[N+]=[N-])C3=O)cc1OS(=O)(=O)c1cccc2c1C=CC(=[N+]=[N-])C2=O [Compound 10] | – |
| 4.3% | CCOCCOC(=O)c1ccc(OS(=O)(=O)c2cccc3c2C=CC(=[N+]=[N-])C3=O)c(OS(=O)(=O)c2cccc3c2C=CC(=[N+]=[N-])C3=O)c1 [Compound 14] | – |
| 7.5% | CCCCCCCCCCCCOC(=O)c1ccc(OS(=O)(=O)c2cccc3c2C=CC(=[N+]=[N-])C3=O)cc1OS(=O)(=O)c1cccc2c1C=CC(=[N+]=[N-])C2=O [Compound 17] | Solubility (%) in butyl acetate [2]: 2.03% |
| 1.03% | CC(=O)c1ccc(OS(=O)(=O)c2cccc3c2C=CC(=[N+]=[N-])C3=O)cc1OS(=O)(=O)c1cccc2c1C=CC(=[N+]=[N-])C2=O [Compound 1] | – |
| > 10.7% | CC(CC(=O)c1ccc(OS(=O)(=O)c2cccc3c2C=CC(=[N+]=[N-])C3=O)cc1OS(=O)(=O)c1cccc2c1C=CC(=[N+]=[N-])C2=O)CC(C)(C)C (stereo not shown) [Compound 5] | Appearance of solution in ethylene glycol monomethyl ether [1, 3]: clear |
